From US7435837B2, “Dihydrobenzofuranyl alkanamine derivatives and methods for using same” (Wyeth, priority 2003, dated 2008)
Read-outs that look alike come from different tables or passages of the source.

What was measured:
human 5-HT2C receptor = molecular target: T1, human 5-HT2C receptor (Homo sapiens, UniProt P28335); assay: 5-HT2C receptor-stimulated calcium mobilization (FLIPR) in CHO cells; assay type: cell-based; settings: for Emax: CHO; for EC50: calcium mobilization, CHO cells stably expressing human 5-HT2C;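 for all read-outs here: Fluo-3-AM fluorescence read on FLIPR every 1 s, agonist added after 10 baseline reads, response taken as peak minus lowest raw fluorescence count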
T1 sequence (P28335 33-458): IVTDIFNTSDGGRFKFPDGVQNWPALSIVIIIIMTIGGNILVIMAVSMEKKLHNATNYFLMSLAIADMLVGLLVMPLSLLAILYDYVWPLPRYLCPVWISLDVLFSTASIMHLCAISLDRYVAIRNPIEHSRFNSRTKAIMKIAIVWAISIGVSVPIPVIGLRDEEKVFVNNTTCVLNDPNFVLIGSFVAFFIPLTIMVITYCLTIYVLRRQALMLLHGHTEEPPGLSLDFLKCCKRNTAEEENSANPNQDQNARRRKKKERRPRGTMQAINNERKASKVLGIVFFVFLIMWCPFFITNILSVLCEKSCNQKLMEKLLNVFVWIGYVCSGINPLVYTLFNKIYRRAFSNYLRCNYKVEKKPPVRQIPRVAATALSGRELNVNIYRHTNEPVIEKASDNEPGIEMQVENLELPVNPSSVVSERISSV

[1] = molecular target: T2, human 5-hydroxytryptamine-2C (h5-HT2C) receptor (Homo sapiens, UniProt P28335); assay: [125I]DOI binding to membranes of CHO cells expressing the human 5-HT2C receptor; settings: [125I]DOI radioligand, CHO cell membranes, room temperature 60 min
T2 construct: expressed in transfected cells; host or cells: CHO (Chinese Hamster Ovary) cells; membranes
T2 sequence (P28335 33-458): T1 sequence (P28335 33-458)

[2] = percentage of the response observed with a maximally effective concentration of 5-HT, read-out: 5-HT2C Function Emax (%)
[3] = read-out: 5-HT2C Function Emax (%), percentage of the response observed with a maximally effective concentration of 5-HT
[4] = percentage of the response observed with a maximally effective concentration of 5-HT

| SMILES | Emax (human 5-HT2C receptor; [2]) [%] | EC50 (human 5-HT2C receptor; read-out: 5-HT2C Function EC50) [nM] | Ki ([1]; read-out: 5-HT2C Affinity Ki) [nM] | EC50 (human 5-HT2C receptor; 5-HT2C Function EC50 (nM)) [nM] | Emax (human 5-HT2C receptor; [3]) [%] | Ki ([1]; 5-HT2C Affinity Ki (nM)) [nM] | 5-HT2C Function Emax (%) (human 5-HT2C receptor; [4]) |
| --- | --- | --- | --- | --- | --- | --- | --- |
| Cc1cc(Cl)ccc1-c1cccc2c1OC(CN)C2 (single isomer, unassigned; (+)) [Example 158, (+)-{[7-(4-chloro-2-methylphenyl)-2,3-dihydro-1-benzofuran-2-yl]methyl}amine] | 100 | 42 | 1.1 |  |  |  |  |
| COc1cc2c(c(-c3ccccc3Cl)c1)OC(CN)C2 (racemic) [Example 357, (±)-{[7-(2-chlorophenyl)-5-methoxy-2,3-dihydro-1-benzofuran-2-yl]methyl}amine] |  |  |  | 2 | 100 | 18 |  |
| CNCC1Cc2cc(C)cc(-c3ccc(C)cc3)c2O1 (racemic) [Example 480, (±)-{[7-(4-methylphenyl)-5-methyl-2,3-dihydro-1-benzofuran-2-yl]methyl}methylamine] | 70 | 251 | 4.4 |  |  |  |  |
| NCC1Cc2cccc(-c3cc(Cl)ccc3Cl)c2O1 (single isomer, unassigned; (-)) [Example 165, (−)-{[7-(2,5-dichlorophenyl)-2,3-dihydro-1-benzofuran-2-yl]methyl}amine] |  | 80 | 18 |  |  |  | 70 |
| CNCC1Cc2cc(OC)cc(-c3ccccc3F)c2O1 (racemic) [Example 491, (±)-{[7-(2-fluorophenyl)-5-methoxy-2,3-dihydro-1-benzofuran-2-yl]methyl}methylamine] | 80 | 200 | 22 |  |  |  |  |
| Cc1ccccc1-c1cc(F)cc2c1OC(CN)C2 (racemic) [Example 104, (±)-1-[5-fluoro-7-(2-methylphenyl)-2,3-dihydro-1-benzofuran-2-yl]methanamine] | 100 | 241 | 1 |  |  |  |  |
| NCC1Cc2cccc(-c3cccc(Cl)c3)c2O1 (racemic) [Example 65, (±)-1-[7-(3-chlorophenyl)-2,3-dihydro-1-benzofuran-2-yl]methanamine] | 100 | 187 | 11 |  |  |  |  |
| CNCC1Cc2cc(F)cc(-c3c(Cl)cccc3Cl)c2O1 (racemic) [Example 454, (±)-{[7-(2,6-dichlorophenyl)-5-fluoro-2,3-dihydro-1-benzofuran-2-yl]methyl}methylamine] |  | 0.39 | 0.26 |  | 90 |  |  |
| CNCC1Cc2cc(OC)cc(-c3ccccc3Cl)c2O1 (racemic) [Example 492, (±)-{[7-(2-chlorophenyl)-5-methoxy-2,3-dihydro-1-benzofuran-2-yl]methyl}methylamine] | 80 | 7 | 3.1 |  |  |  |  |
| CNCC1Cc2cc(F)cc(-c3ccccc3C)c2O1 (single isomer, unassigned; (+)) [Example 442, (+)-{[5-fluoro-7-(2-methylphenyl)-2,3-dihydro-1-benzofuran-2-yl]methyl}methylamine] |  | 6 | 0.2 |  |  |  | 90 |
| Cc1cc2c(c(-c3c(C)cccc3C)c1)OC(CN)C2 (racemic) [Example 301, (±)-{[7-(2,6-dimethylphenyl)-5-methyl-2,3-dihydro-1-benzofuran-2-yl]methyl}amine] | 90 | 31 | 2 |  |  |  |  |
| NCC1Cc2cc(F)cc(-c3ccccc3F)c2O1 (racemic) [Example 107, (±)-1-[5-fluoro-7-(2-fluorophenyl)-2,3-dihydro-1-benzofuran-2-yl]methanamine] | 100 | 93 | 1 |  |  |  |  |
| CNCC1Cc2cccc(-c3ccc(OC)cc3)c2O1 (racemic) [Example 421, (±)-[(N-methyl-1-[7-(4-methoxyphenyl)-2,3-dihydro-1-benzofuran-2-yl]methanamine] | 70 | 93 | 1.5 |  |  |  |  |
| COc1cc2c(c(-c3cccc(F)c3F)c1)OC(CN)C2 (racemic) [Example 361, (±)-{[7-(2,3-difluorophenyl)-5-methoxy-2,3-dihydro-1-benzofuran-2-yl]methyl}amine] | 90 | 73 | 33 |  |  |  |  |
| COc1ccc(-c2cc(F)cc3c2OC(CN)C3)c(OC)c1 (racemic) [Example 219, (±)-{[7-(2,4-dimethoxyphenyl)-5-fluoro-2,3-dihydro-1-benzofuran-2-yl]methyl}amine] | 90 | 79 | 7 |  |  |  |  |
| NCC1Cc2cccc(-c3ccccc3C(F)(F)F)c2O1 (racemic) [Example 53, (±)-1-{7-[2-(trifluoromethyl)phenyl]-2,3-dihydro-1-benzofuran-2-yl}methanamine] | 80 | 45 | 1 |  |  |  |  |

| SMILES | Emax (human 5-HT2C receptor; [2]) [%] | EC50 (human 5-HT2C receptor; read-out: 5-HT2C Function EC50) [nM] | Ki ([1]; read-out: 5-HT2C Affinity Ki) [nM] | EC50 (human 5-HT2C receptor; 5-HT2C Function EC50 (nM)) [nM] | Emax (human 5-HT2C receptor; [3]) [%] | Ki ([1]; 5-HT2C Affinity Ki (nM)) [nM] | 5-HT2C Function Emax (%) (human 5-HT2C receptor; [4]) |
| --- | --- | --- | --- | --- | --- | --- | --- |
| NCC1Cc2cc(Cl)cc(-c3cccc(F)c3F)c2O1 (single isomer, unassigned; (-)) [Example 245, (−)-{[5-chloro-7-(2,3-difluorophenyl)-2,3-dihydro-1-benzofuran-2-yl]methyl}amine] | 100 | 57 | 2 |  |  |  |  |
| NCC1Cc2cc(Cl)cc(-c3cc(F)ccc3F)c2O1 (racemic) [Example 255, (±)-{[5-chloro-7-(2,5-difluorophenyl)-2,3-dihydro-1-benzofuran-2-yl]methyl}amine] | 90 | 79 | 5 |  |  |  |  |
| NCC1Cc2cccc(-c3cccc(F)c3)c2O1 (single isomer, unassigned; (-)) [Example 132, (−)-1-[7-(3-fluorophenyl)-2,3-dihydro-1-benzofuran-2-yl]methanamine] |  | 1480 | 20 |  |  |  | 50 |
| NCC1Cc2cc(F)cc(-c3ccccc3C(F)(F)F)c2O1 (racemic) [Example 108, (±)-1-{5-fluoro-7-[2-(trifluoromethyl)phenyl]-2,3-dihydro-1-benzofuran-2-yl}methanamine] | 95 | 39 | 4 |  |  |  |  |
| NCC1Cc2cc(C(F)(F)F)cc(-c3cc(F)ccc3F)c2O1 (racemic) [Example 336, (±)-{[7-(2,5-difluorophenyl)-5-(trifluoromethyl)-2,3-dihydro-1-benzofuran-2-yl]methyl}amine] | 90 | 123 | 45 |  |  |  |  |
| CNC[C@H]1Cc2cc(F)cc(-c3ccccc3Cl)c2O1 [Example 545, (R)-[7-(2-chloro-phenyl)-5-fluoro-2,3-dihydro-benzofuran-2-ylmethyl]-methyl-amine] | 100 | 0.1 | 0.14 |  |  |  |  |
| NCC1Cc2cc(F)cc(-c3ccccc3)c2O1 (racemic) [Example 103, (±)-1-(5-fluoro-7-phenyl-2,3-dihydro-1-benzofuran-2-yl)methanamine] | 80 | 996 | 7 |  |  |  |  |
| Cc1ccccc1-c1cc(F)c(F)c2c1OC(CN)C2 (racemic) [Example 110, (±)-1-[4,5-difluoro-7-(2-methylphenyl)-2,3-dihydro-1-benzofuran-2-yl]methanamine] | 70 | 1000 | 9 |  |  |  |  |
| NCC1Cc2cc(C(F)(F)F)cc(-c3ccccc3F)c2O1 (racemic) [Example 313, (±)-{[5-(trifluoromethyl)-7-(2-fluorophenyl)-2,3-dihydro-1-benzofuran-2-yl]methyl}amine] | 90 | 70 | 164 |  |  |  |  |
| NCC1Cc2cc(Cl)cc(-c3cc(Cl)ccc3Cl)c2O1 (racemic) [Example 256, (±)-{[5-chloro-7-(2,5-dichlorophenyl)-2,3-dihydro-1-benzofuran-2-yl]methyl}amine] | 100 | 4 | 0.74 |  |  |  |  |
| Cc1cccc(-c2cc(F)cc3c2OC(CN)C3)c1 (racemic) [Example 198, (±)-{[5-fluoro-7-(3-methylphenyl)-2,3-dihydro-1-benzofuran-2-yl]methyl}amine] | 60 | 903 | 17 |  |  |  |  |
| Cc1cc2c(c(-c3c(Cl)cccc3Cl)c1)OC(CN)C2 (racemic) [Example 302, (±)-{[7-(2,6-dichlorophenyl)-5-methyl-2,3-dihydro-1-benzofuran-2-yl]methyl}amine] | 100 | 2 | 0.3 |  |  |  |  |
| CNCC1Cc2cc(F)cc(-c3ccccc3Cl)c2O1 (racemic) [Example 439, (±)-{[5-fluoro-7-(2-chlorophenyl)-2,3-dihydro-1-benzofuran-2-yl]methyl}methylamine] | 90 | 6 | 0.45 |  |  |  |  |
| COc1ccccc1-c1cccc2c1OC(CN)C2 (single isomer, unassigned; (+)) [Example 128, (+)-1-[7-(2-methoxyphenyl)-2,3-dihydro-1-benzofuran-2-yl]methanamine] | 70 | 24 | 41 |  |  |  |  |
| COc1cc2c(c(-c3ccccc3OC)c1)OC(CN)C2 (racemic) [Example 359, (±)-{[7-(2-methoxyphenyl)-5-methoxy-2,3-dihydro-1-benzofuran-2-yl]methyl}amine] | 90 | 8 | 10 |  |  |  |  |
